The subject of assay [1] is anaesthetised Wistar rats. Nature of the assay: Blood pressure, heart rate and breathing rate of anaesthetised Wistar rats. The assay is classed as in vivo, rat. The conditions noted are these: anaesthetised Wistar rats, 3 μM/kg Na2S injected, FIG. 20. The protocol:
The mean arterial blood pressure (MAP) of anaesthetised Wistar rats was measured by a pressure transducer in the carotid artery. In ex vivo experiments, effects of AP39 were studied on noradrenaline precontracted rat aortic rings (see below). The single channel properties of intracellular chloride channels from rat heart were studied using the bilayer lipid membrane method (see below).
(§1) The catheter was inserted into the right jugular vein of male wistar rats or male spontaneously hypertensive (SHR) rats so as to reach the right atrium. Anesthesia (ZOLELIT, VIRBAC, 40 mg/kg to leg) and Xylazine 2%. AP39 solutions were prepared in 4 μl DMSO then mixed with 100 μl Krebs solution and immediately applied for 10 sec. (FIGS. 20, 21 and 22).
(§2) Blood pressure, heart rate and breathing rate were all measured at the same time, in accordance with Ling et al., 2008 Circulation 117 2351-2360.

The subject of assay [2] is spontaneously hypertensive (SHR) rats. Nature of the assay: Blood pressure, heart rate and breathing rate of anaesthetised SHR rats. The assay is classed as in vivo, rat. The conditions noted are these: Wistar or SHR rats, Na2S, summary statement, dose not given. The protocol:
as §1, §2

The test system of assay [3] is HMEC. Nature of the assay: Mitochondrial oxidative stress measurements (MitoSox Red). The assay is classed as cell-based, human. Particulars: GYY4137 100 μM. As to the method: HMEC were incubated with H2S donor compounds for 5 hrs then the oxidants H2O2, SIN-1 or […] added for 2 hrs. We used a mitochondria-selective oxidant probe MitoSox Red (final concentration, 5 μM) to detect mitochondria-derived oxidant species by fluorescence using a Gemini M2e microplate reader (excitation wavelength 510 nm, emission wavelength, 580 nm). The method was performed in accordance with the method described by M. Whiteman et al (Meths. Mol. Biol., 2008, 476, 29-50) and R. A. Quintanilla et al (J Biol Chem., 2008, 284, 18754-18766).

Assay [4] concerns cancer. The conditions noted are these: in vitro and in vivo; cited from earlier work.
For assay [5], the system named is HMEC. Nature of the assay: Intracellular oxidative stress measurements (DCFDA assay). It counts as cell-based, human. As to the method: HMEC were incubated with H2S donor compounds for 5 hrs then H2O2, […] or SIN-1 were added for 2 hrs. Intracellular oxidative stress was then assessed using dichlorofluorescein diacetate (added at a final concentration of 10 μM) and fluorescence detected using a Gemini M2e microplate reader at 37° C. (excitation wavelength, 488 nm, emission wavelength 525 nm). The method was performed in accordance with the method described by M. Whiteman et al (Meths. Mol. Biol., 2008, 476, 29-50).

Assay [6] concerns HMEC. The experiment in a line: Mitochondrial membrane potential (ΔΨm), tetramethylrhodamine methyl ester. The assay is classed as cell-based, human. Particulars: H2O2, SIN-1 or 4-HNE; GYY4137 100 μM, FIG. 13. The protocol:
HMEC were incubated with H2S donor compounds for 5 hrs followed by the addition of oxidants SIN-1 (500 μM), H2O2 (50 μM) or […] (10 μM) for 24 hrs. After this time the mitochondria-specific potentiometric dye tetramethylrhodamine methyl ester (200 nM) was added and fluorescence was determined using a Gemini M2e microplate reader (excitation wavelength 548 nm, emission wavelength 573 nm). The method was performed in accordance with the method described by M. Whiteman et al (FASEB J, 2004, 18, 1395-1397).

Assay [7] deals with HMEC. Nature of the assay: Cell death induced by inhibitors of endogenous H2S synthesis (AOAA, PAG). It counts as cell-based, human. The conditions noted are these: GYY4137 100 μM, FIGS. 5-7, p<0.001. The source says:
In the data shown in FIGS. 5 to 7, ###=p<0.001 compared to the control; ***=p<0.001 compared to inhibitors.

“Also recorded” adds a separate entry of the source.

Consider `[Na+].[Na+].[S-2]` [Na2S, reference compound], for which, in assay [1], the blood pressure result was “no effect; also recorded: not observed”, the breathing rate result is recorded as “no effect” and the heart rate result is on record as “no effect; also recorded: not observed”. In addition, in assay [2], the blood pressure entry is reported as “did not reduce blood pressure” and the heart rate entry was “did not decrease heart rate”.
For “morpholin-4-ium 4-methoxyphenyl(morpholino) phosphinodithioate [GYY4137, reference compound]”, the “mitochondrial superoxide formation induced by 4-HNE (MitoSOX red)” value in assay [3] (4-HNE 10 μM, FIG. 16) was “reduced”. The “mitochondrial superoxide formation induced by H2O2 (MitoSOX red)” value in assay [3] (H2O2 50 μM, FIG. 17) is listed as “reduced”. In addition, the anti-cancer effects entry in assay [4] was “anti-cancer effects”. The “4-HNE-derived intracellular oxidant species (DCFDA assay)” value in assay [5] (GYY4137 100 μM, FIGS. 14 and 15) is “significantly reduced; also recorded: significantly decreased”. The “time dependent increase in intracellular oxidative stress (DCFDA assay)” value in assay [5] (pretreatment with GYY4137 100 μM, FIG. 15) is on record as “reduced”. Also, the “oxidant-induced mitochondrial membrane potential (Δψm) collapse” value in assay [6] is “inhibition”. For the same compound, the “AOAA, PAG and AOAA/PAG induced cell death” value in assay [7] is listed as “significantly inhibited”.

The record behind these values is patent US10058100B2, “Hydrogen sulfide releasing compounds and their use” (THE UNIVERSITY OF EXETER, priority 2011, dated 2018).
